The results in this text go back to patent US11208412B2 (DAEGU-GYEONGBUK MEDICAL INNOVATION FOUNDATION, priority 2017, dated 2021).

What all share (experiment): Kinase selectivity, DiscoverX scanMAX Kinase assay panel (% control)
Common to all, as to type: binding

The target in test [1] is T1, kinases of the scanMAX Kinase assay panel (Homo sapiens, UniProt P31152).
T1 construct: purchased DiscoverX Co. (contract measurement) scanMAX Kinase assay panel
As to conditions: ERK4; 1 uM. Here is the method: (§1) The following experiment was performed to evaluate the activity of the compounds of the present invention to inhibit many enzymes.
(§2) Particularly, the compounds of Examples 8, 64 and 104 were selected among all of those compounds of the invention. DiscoverX Co. was asked to measure the enzyme (kinase) selectivity, and the experiment was performed using scanMAX™ Kinase assay panel.
(§3) Wherein, the concentration of the drug treated to each enzyme was 1 uM in DMSO and the control percentage (% control) was determined by the following Equation 1. (example compound−positive control)/(negative control−positive control)×100 [Equation 1]
(§4) Herein, the positive control indicates the compound showing the % control of 0%, and the negative control indicates DMSO showing the % control of 100%. The enzyme selectivity in the present invention is defined as follows: When the % control for each enzyme is less than 35% (<35%), it is judged that the compound has the activity to the corresponding enzyme.

The target in test [2] is T2, kinases of the scanMAX Kinase assay panel (Homo sapiens, UniProt P35626).
T2 construct: purchased DiscoverX Co. (contract measurement) scanMAX Kinase assay panel
T2 sequence (P35626 1-688): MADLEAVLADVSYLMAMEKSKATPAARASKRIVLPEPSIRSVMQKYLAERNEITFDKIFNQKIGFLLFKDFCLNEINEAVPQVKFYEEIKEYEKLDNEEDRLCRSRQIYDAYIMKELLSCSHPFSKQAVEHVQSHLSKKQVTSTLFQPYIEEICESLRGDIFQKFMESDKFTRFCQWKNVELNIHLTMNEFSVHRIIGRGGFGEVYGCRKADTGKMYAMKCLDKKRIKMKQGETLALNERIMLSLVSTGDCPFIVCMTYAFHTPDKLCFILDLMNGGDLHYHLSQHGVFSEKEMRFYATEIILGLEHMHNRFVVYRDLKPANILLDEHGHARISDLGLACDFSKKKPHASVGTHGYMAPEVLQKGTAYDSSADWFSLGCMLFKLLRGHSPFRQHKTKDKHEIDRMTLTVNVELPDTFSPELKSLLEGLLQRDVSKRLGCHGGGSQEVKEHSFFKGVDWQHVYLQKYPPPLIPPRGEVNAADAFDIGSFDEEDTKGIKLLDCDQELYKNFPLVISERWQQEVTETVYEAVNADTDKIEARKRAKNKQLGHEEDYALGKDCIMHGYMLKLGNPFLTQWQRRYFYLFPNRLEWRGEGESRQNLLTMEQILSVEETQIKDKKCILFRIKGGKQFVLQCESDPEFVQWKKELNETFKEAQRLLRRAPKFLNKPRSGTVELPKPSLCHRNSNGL
As to conditions: GRK3; 1 uM. Here is the method:
as §1, §2, §3, §4

Test [3] deals with T3, kinases of the scanMAX Kinase assay panel (Homo sapiens, UniProt P42336, H1047L).
T3 construct: purchased DiscoverX Co. (contract measurement) scanMAX Kinase assay panel
T3 sequence (P42336 whole entry H1047L): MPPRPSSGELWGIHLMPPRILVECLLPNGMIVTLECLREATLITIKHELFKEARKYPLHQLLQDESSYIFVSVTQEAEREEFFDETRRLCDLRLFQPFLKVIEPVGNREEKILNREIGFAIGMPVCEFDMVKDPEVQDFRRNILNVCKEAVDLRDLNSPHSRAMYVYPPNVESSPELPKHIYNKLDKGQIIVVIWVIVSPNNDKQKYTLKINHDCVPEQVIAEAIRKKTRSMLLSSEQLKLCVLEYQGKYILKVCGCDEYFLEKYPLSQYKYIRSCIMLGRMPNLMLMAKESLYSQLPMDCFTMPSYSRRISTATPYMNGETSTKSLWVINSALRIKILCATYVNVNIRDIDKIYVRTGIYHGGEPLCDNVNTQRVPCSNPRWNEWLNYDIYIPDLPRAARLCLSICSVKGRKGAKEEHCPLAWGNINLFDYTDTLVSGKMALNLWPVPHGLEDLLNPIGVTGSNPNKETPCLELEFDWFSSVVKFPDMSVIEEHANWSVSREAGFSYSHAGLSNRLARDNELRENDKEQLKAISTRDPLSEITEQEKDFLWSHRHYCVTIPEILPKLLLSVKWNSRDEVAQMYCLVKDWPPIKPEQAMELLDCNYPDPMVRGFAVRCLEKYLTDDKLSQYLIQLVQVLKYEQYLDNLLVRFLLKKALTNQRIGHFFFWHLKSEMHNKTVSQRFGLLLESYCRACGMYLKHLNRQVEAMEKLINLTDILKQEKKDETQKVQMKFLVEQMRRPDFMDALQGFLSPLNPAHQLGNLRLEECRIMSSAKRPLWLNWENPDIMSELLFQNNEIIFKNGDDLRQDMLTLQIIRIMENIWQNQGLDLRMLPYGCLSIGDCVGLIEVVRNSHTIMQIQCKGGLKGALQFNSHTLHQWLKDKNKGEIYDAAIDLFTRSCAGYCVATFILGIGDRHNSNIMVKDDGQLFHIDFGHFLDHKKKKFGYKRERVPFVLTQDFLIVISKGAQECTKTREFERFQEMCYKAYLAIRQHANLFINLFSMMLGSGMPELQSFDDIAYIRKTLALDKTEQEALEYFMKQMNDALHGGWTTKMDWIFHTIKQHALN
As to conditions: PIK3CA(H1047L); 1 uM. Here is the method:
as §1, §2, §3, §4

In test [4] the target is T4, kinases of the scanMAX Kinase assay panel (Homo sapiens, UniProt P45985).
T4 construct: purchased DiscoverX Co. (contract measurement) scanMAX Kinase assay panel
T4 sequence (P45985 1-399): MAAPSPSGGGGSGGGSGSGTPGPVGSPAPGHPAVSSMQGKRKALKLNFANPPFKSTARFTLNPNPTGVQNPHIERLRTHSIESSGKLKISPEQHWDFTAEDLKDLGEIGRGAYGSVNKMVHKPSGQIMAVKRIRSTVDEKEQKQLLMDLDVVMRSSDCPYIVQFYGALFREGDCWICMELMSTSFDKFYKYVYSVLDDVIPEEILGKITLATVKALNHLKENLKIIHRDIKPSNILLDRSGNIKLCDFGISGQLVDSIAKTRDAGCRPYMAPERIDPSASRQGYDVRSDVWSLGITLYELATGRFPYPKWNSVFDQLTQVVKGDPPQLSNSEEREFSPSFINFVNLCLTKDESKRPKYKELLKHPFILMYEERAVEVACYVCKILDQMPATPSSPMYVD
As to conditions: MEK4; 1 uM. Here is the method: as §1, §2, §3, §4

The target of test [5] is T5, kinases of the scanMAX Kinase assay panel (Homo sapiens, UniProt Q00537).
T5 construct: purchased DiscoverX Co. (contract measurement) scanMAX Kinase assay panel
T5 sequence (Q00537 whole entry): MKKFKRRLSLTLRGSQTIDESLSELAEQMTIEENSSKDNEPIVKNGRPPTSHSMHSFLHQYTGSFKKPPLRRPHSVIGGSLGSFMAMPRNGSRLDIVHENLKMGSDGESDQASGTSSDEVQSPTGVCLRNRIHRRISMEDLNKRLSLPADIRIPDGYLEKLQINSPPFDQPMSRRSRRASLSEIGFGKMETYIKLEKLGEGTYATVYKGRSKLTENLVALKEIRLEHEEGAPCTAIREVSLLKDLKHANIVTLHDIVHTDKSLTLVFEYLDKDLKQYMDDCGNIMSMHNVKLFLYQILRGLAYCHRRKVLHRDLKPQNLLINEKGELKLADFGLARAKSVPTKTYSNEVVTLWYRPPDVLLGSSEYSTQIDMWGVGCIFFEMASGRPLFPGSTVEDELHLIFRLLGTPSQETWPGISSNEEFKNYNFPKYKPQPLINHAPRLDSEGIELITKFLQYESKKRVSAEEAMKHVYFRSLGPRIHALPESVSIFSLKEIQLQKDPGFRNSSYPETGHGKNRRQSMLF
As to conditions: PCTK2; 1 uM. The procedure:
as §1, §2, §3, §4

Test [6] concerns the target T6, kinases of the scanMAX Kinase assay panel (Homo sapiens, UniProt Q15139).
T6 construct: purchased DiscoverX Co. (contract measurement) scanMAX Kinase assay panel
T6 sequence (Q15139 1-912): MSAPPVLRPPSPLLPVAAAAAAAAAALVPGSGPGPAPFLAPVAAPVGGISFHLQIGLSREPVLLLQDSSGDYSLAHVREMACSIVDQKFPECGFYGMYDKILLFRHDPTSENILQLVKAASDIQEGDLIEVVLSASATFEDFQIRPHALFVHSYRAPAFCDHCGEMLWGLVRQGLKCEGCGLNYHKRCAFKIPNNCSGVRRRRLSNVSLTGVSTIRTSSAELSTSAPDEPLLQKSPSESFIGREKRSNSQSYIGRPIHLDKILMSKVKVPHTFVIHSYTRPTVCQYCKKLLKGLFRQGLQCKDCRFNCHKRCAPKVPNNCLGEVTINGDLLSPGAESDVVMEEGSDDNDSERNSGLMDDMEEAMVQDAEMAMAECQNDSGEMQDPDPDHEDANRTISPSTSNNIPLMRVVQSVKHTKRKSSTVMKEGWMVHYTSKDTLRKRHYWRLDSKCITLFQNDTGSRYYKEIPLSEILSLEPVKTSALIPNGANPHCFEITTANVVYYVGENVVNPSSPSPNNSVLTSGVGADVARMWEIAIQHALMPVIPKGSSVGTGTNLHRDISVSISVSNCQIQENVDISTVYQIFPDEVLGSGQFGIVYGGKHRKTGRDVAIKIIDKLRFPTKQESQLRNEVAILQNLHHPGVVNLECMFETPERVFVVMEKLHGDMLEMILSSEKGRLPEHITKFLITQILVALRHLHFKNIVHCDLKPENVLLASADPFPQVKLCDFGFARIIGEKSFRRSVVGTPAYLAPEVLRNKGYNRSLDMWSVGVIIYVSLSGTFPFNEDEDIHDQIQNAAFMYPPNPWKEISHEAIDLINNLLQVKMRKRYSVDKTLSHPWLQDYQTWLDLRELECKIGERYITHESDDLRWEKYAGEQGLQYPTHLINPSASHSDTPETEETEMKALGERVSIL
As to conditions: PRKD1; 1 uM. Here is the method:
as §1, §2, §3, §4

Test [7] addresses T7, kinases of the scanMAX Kinase assay panel (Homo sapiens, UniProt Q8TDR2).
T7 construct: purchased DiscoverX Co. (contract measurement) scanMAX Kinase assay panel
As to conditions: kinase STK35; 1 uM in DMSO. The procedure: as §1, §2, §3, §4

Test [8] concerns the target T8, kinases of the scanMAX Kinase assay panel (Homo sapiens, UniProt Q9H2X6).
T8 construct: purchased DiscoverX Co. (contract measurement) scanMAX Kinase assay panel
As to conditions: HIPK2; 1 uM. The procedure:
as §1, §2, §3, §4

Test [9] deals with T9, kinases of the scanMAX Kinase assay panel (Homo sapiens, UniProt Q9P286).
T9 construct: purchased DiscoverX Co. (contract measurement) scanMAX Kinase assay panel
T9 sequence (Q9P286 whole entry): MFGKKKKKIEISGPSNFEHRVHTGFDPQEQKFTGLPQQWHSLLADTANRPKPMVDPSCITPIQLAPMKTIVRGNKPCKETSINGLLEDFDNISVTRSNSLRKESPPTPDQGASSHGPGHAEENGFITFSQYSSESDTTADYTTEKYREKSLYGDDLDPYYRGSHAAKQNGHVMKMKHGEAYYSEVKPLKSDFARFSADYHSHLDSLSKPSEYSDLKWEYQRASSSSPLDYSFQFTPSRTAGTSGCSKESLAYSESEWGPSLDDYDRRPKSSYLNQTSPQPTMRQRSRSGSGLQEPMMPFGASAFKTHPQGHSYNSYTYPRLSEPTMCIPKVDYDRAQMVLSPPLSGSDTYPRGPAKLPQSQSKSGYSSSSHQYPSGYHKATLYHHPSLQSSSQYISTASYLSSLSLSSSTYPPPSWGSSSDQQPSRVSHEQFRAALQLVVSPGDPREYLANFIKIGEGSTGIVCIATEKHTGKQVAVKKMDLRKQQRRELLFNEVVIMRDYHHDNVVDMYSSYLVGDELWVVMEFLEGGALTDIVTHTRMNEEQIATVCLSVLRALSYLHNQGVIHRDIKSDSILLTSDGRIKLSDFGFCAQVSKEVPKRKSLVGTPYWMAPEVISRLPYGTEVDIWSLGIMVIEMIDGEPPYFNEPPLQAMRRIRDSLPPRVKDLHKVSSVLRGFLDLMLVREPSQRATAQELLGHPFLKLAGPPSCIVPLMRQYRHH
As to conditions: PAK7; 1 uM. Here is the method:
as §1, §2, §3, §4

T7 sequence (Q8TDR2 whole entry): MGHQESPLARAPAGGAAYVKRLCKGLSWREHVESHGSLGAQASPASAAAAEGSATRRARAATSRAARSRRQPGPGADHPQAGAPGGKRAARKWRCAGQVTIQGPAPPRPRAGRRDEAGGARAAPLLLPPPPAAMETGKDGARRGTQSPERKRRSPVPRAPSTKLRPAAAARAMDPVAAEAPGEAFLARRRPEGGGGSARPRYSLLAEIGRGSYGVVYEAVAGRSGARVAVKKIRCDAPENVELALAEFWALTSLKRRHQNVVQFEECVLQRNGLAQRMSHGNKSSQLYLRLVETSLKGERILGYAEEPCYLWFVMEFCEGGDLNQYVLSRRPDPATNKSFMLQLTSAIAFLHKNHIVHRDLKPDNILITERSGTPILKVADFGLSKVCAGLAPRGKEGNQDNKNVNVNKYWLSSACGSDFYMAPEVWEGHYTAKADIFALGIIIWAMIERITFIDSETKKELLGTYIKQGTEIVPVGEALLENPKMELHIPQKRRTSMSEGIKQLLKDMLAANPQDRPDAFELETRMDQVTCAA
T1 sequence (P31152 whole entry): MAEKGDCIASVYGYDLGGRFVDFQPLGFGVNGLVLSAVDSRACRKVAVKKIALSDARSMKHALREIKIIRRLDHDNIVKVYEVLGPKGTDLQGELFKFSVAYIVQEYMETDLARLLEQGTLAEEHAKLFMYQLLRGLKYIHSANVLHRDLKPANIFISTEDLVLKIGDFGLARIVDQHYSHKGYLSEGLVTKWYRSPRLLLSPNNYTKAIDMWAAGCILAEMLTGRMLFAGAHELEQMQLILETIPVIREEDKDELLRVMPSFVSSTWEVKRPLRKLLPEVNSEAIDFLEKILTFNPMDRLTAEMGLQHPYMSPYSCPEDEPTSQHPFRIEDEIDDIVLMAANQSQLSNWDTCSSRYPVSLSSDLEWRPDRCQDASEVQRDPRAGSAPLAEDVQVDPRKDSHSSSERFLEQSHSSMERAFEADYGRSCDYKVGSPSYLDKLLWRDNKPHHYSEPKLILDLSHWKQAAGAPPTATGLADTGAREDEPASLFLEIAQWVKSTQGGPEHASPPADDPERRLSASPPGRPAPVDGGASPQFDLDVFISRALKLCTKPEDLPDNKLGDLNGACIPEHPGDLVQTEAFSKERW
T8 sequence (Q9H2X6 whole entry): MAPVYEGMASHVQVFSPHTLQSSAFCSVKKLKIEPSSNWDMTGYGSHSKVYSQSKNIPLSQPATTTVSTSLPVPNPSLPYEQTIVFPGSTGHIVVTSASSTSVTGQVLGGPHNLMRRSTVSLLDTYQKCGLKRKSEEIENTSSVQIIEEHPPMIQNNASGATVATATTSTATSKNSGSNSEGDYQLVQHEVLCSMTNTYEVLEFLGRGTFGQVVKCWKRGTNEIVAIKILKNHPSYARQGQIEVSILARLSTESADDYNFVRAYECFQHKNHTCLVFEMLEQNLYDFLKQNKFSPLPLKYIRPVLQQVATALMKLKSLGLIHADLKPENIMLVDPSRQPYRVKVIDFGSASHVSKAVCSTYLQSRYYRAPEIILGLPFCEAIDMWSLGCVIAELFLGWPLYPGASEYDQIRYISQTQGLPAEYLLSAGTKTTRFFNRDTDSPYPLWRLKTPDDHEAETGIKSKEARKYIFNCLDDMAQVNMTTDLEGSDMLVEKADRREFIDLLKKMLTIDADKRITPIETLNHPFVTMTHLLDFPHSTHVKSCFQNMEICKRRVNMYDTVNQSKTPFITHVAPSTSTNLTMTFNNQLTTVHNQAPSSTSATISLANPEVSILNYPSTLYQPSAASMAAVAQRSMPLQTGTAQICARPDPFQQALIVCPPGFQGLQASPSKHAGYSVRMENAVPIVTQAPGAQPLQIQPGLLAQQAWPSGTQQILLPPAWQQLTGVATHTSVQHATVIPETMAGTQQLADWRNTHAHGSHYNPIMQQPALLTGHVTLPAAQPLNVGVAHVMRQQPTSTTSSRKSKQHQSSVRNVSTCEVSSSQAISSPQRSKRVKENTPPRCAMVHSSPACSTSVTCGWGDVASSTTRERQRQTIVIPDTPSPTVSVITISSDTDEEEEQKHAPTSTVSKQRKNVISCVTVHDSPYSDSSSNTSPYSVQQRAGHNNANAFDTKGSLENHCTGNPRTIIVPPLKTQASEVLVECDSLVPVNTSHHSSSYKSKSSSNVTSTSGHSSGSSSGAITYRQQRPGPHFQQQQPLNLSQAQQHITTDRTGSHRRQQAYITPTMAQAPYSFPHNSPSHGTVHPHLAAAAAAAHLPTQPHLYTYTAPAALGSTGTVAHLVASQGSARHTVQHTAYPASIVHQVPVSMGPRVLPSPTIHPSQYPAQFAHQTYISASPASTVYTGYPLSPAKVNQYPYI

`CNc1nc(Nc2ccc(C(=O)N3CCOCC3)cc2OC)nc2[nH]cc(C#N)c12` [Example 1, 2-((2-methoxy-4-(morpholine-4-carbonyl)phenyl)amino)-4-(methylamino)-7H-pyrrolo[2,3-d]pyrimidine-5-carbonitrile]: the remaining binding at 1 µM was 95% in test [1]; 99% in test [2]; 100% in test [3]; 0% in test [4]; 98% in [5]; 5.7% in test [6]. The remaining binding at 1 µM is 100% in test [7], 47% in [8] and 91% in [9].

Consider `CC1(Nc2nc(Nc3cnn([C@H]4CCN(C5COC5)C[C@@H]4F)c3Cl)nc3[nH]cc(C#N)c23)CC1` [Example 52, 2-((5-chloro-1-((3S,4S)-3-fluoro-1-(oxetane-3-yl)piperidine-4-yl)-1H-pyrazole-4-yl)amino)((1-methylcyclopropyl)amino)-7H-pyrrolo[2,3-d]pyrimidine-5-carbonitrile], for which the remaining binding at 1 µM in [1] turned out to be 100%; in test [2], 53%; in [3] it was 70%; in test [4], 0%; in test [5], 88%; in test [6], 12%. For the same compound, the remaining binding at 1 µM was 14% in [7], 13% in [8] and 0.25% in [9].

For `CCNc1nc(Nc2ccc(C(=O)N3CCC(N4CCOCC4)CC3)cc2OC)nc2[nH]cc(C(F)(F)F)c12` [Example 104, (4-((4-(ethylamino)-5-(trifluoromethyl)-7H-pyrrolo[2,3-d]pyrimidine-2-yl)amino)-3-methoxyphenyl)(4-morpholinopiperidine-1-yl)methanone], the remaining binding at 1 µM is 92% in [1]; 97% in test [2]; 88% in test [3]; 16% in [4]; 99% in test [5]; 11% in test [6]. The remaining binding at 1 µM amounted to 100% in test [7], 14% in test [8] and 85% in test [9].
